Like-named read-outs stand apart in the source and are kept apart here. Square brackets hold non-standard residues; d marks the D form. Peptide text beside a SMILES is read from it. Hyp = O=C(O)[C@@H]1C[C@@H](O)CN1
Key:
[1] = test system: ApoE^−/− mice; test: Serum lipid levels in ApoE−/− mice (advanced atherosclerosis model); format: in vivo, mouse; settings: aspirin 25 mg/kg bw oral every other day at stage II, n = 8
Source text: (§1) The establishment of the AS model in ApoE^−/− mice was divided into two stages. At I stage, 8-week-old male ApoE^−/− mice were fed a Western-type diet (42% fat; 21% anhydrous milk fat, 0.15% cholesterol) for 16 weeks to establish an early AS model. At II stage, a high-fat and high-cholesterol diet (containing 5% cholesterol, 0.5% sodium cholate, 20% fat) was replaced at the 17th week to accelerate the progress of AS till the 24th week. The C57BL6/J mice were utilized as the normal control group and maintained on a standard maintenance diet (20% protein; 5% fat; 50% carbohydrate; 5% cellulose; 10% vitamins and minerals). The mice were subsequently randomized into 4 groups, each consisting of 8 animals: (i) M Group (0.9% saline for ApoE^−/− mice), (ii) Sustainable OG-5 intervention group (50 mg/kg bw) during two stages, (iii) OG-5 treatment group (150 mg/kg bw), and (iv) aspirin group (25 mg/kg bw) at II stage. The OG-5 and aspirin were orally administered to mice every other day. Animals that were not subjected to any treatment and maintained on a normal diet served as the control group (N group). The body weight was monitored every week.
(§2) After 24-week treatment, the mice were fasted overnight and sacrificed. Blood was collected to stand at room temperature for 2 h, and the serum was separated by centrifugation for further analysis.

[2] = Body weight and organ index of ApoE−/− mice after oral administration; format: in vivo, mouse; settings: n = 8
Method: The animal study was performed in compliance with the requirements of the Guide for the Care and Use of Laboratory Animals (NIH publication No.86-23, revised 1996) and was approved by the Welfare Committee of Pony Testing International Group Co., Ltd., Beijing, China (PONY-2021-FL-12, approval date: 5 December 2021). The 7-week-old male ApoE^−/− mice and C57BL/6J mice were purchased from Beijing Vital River Laboratory Animal Technology Co., Ltd. (Beijing, China). The mice were acclimatized for a period of one week in a pathogen-free environment, maintained under a controlled 12-h light/dark cycle at a constant temperature of 21 °C. During this period, they had unrestricted access to a standard rodent chow diet and tap water. Following acclimatization, the mice were assigned to experimental groups randomly, with each group consisting of eight mice.
as §1, §2

[3] = In vivo absorption experiment on rats; settings: rat
Method: The peptide absorption in vivo was conducted as previously described. The rats were orally administered with peptide OG-5 (1.0 g/kg bw). Blood samples were obtained via a minimal incision at the tail tip at 0, 0.5, 1, and 2 h after oral administration. The collected blood was transferred into 5 kDa ultrafiltration centrifugal tube, and the filtrate was collected for HPLC analysis. The elution program was conducted as follows: 0–5 min, 10–15% buffer B (acetonitrile); 5–20 min, 15–25% buffer B; 20–25 min, 25–100% buffer B.

[4] = Peptide stability in plasma; format: in vitro ADME; settings: rat plasma (heparinized), 0.5 mM, 37 °C, 8 h incubation, 3 kDa ultrafiltration, HPLC-UV peak area
Method: The assessment of peptide stability in plasma was conducted with modifications to a previously described method. Briefly, blood samples were collected in heparinized tubes and immediately centrifuged to separate the plasma supernatant. Subsequently, OG-5 was added to achieve a final concentration of 0.5 mM, and the mixture was incubated at 37 °C. At specified time points (0, 0.5, 1.0, 2.0, 4.0, and 8.0 h), the mixture was centrifuged using a 3 kDa ultrafiltration centrifugal tube to separate the filtrate. The filtrate was then analyzed using a Shimadzu LC-15 HPLC system, equipped with an SPD-15 ultraviolet detector (Kyoto, Japan). The HPLC analysis conditions included an injection volume of 10 μL, a flow rate of 1 mL/min, and a gradient elution program: 0–25 min, 0–25% acetonitrile (buffer B); 25–30 min, 25–35% buffer B; 30–35 min, 35–100% buffer B. The quantity of peptide OG-5 in the plasma was determined based on its peak area.

[5] = test system: ApoE^−/− mice; test: Bleeding time after long-term oral administration (Figure S1); format: in vivo, mouse; settings: n = 8
Source text: The following supporting information can be downloaded at: https://www.mdpi.com/article/10.3390/nu16213752/s1, Figure S1: Bleeding time after oral administration of peptide OG-5 in ApoE^−/− mice (n = 8).

[6] = test system: Caco-2 cell monolayers; test: Transport across Caco-2 cell monolayers; format: in vitro ADME, human; settings: Caco-2 monolayers 21 days, TEER > 800 Ω·cm^2, apical to basolateral, HBSS, pre-incubation 1 h 37 °C, incubation 2 h, HPLC
Method: The Caco-2 cell culture and the establishment of the transepithelial transport model were according to the previous study. The Caco-2 cells (10–20 passages) were grown in DMEM supplemented with 10% FBS and 1% penicillin streptomycin at 37 °C.
For the establishment of the transepithelial transport model, Caco-2 cells were seeded onto permeable polyester inserts (12 mm diameter, with a growth surface area of 1.12 cm^2 and a pore size of 0.4 μm, sourced from Costar, Corning, NY, USA) placed in 12-well transwell plates at a density of 1 × 10^5 cells per insert. Over a period of 21 days, the cell culture medium was replaced cautiously every two days to facilitate the differentiation of Caco-2 cells into fully confluent monolayers. […] The Caco-2 cell monolayers were delicately rinsed twice with HBSS and subsequently pre-incubated at 37 °C for 1 h. […]
Transport percentage (%) is calculated by the following equation: (1) Transport percentage %=transported amount of peptide in basolateral side/intial amount of peptide in apical side×100
The apparent permeability coefficient (Papp, cm/s) was calculated as follows:(2) Papp=dQ/dt×1/A×1/C0 where dQ/dt is the permeability rate (mmol/s); A is the area of the membrane (cm^2); C0 is the initial peptide concentration in the donor chamber (mM).

[7] = cited from earlier work
Source text: The application of peptides is usually limited for the short half-life and is commonly due to fast renal clearance as well as enzymatic degradation, including aminopeptidases, carboxypeptidases, dipeptidases and endopeptidases occurring during systemic circulation.

[8] = test system: Caco-2 cell monolayers; settings: results reported for other peptides; cited from earlier work
Source text: According to the previous study, a Papp value higher than 1.0 × 10^−5 cm ...

[9] = aspirin 25 mg/kg bw oral every other day at stage II
[10] = OG-5 50 mg/kg bw oral every other day, stages I and II
[11] = OG-5 150 mg/kg bw oral every other day at stage II
[12] = long-term oral 150 mg/kg bw, bleeding time

Compound: CC(=O)Oc1ccccc1C(=O)O [Aspirin, reference compound]
- HDL-C [1]: 0.64 ± 0.37 mM
- LDL-C [1]: 9.55 ± 1.89 mM
- TC [1]: 41.09 ± 6.05 mM
- TG [1]: 3.43 ± 0.96 mM
- Final Body weight [2, 9]: 28.8 ± 1.7 g
- Initial Body weight [2, 9]: 27.7 ± 2.8 g
- Spleen index [2, 9]: 4.99 ± 2.64 mg/g bw
- Thymus index [2, 9]: 0.83 ± 0.12 mg/g bw

Compound: O=C(O)CC[C@H](NC(=O)CNC(=O)[C@@H]1C[C@@H](O)CN1)C(=O)N[C@@H](Cc1ccccc1)C(=O)NCC(=O)O [OG-5, OGEFG] (H-[Hyp]GEFG-OH)
- Tmax ([3]; po, 1 g/kg): 2 h
- Cmax ([3]; rats, oral 1.0 g/kg bw, tail blood at 0, 0.5, 1, 2 h, 5 kDa ultrafiltration, HPLC, read-out: peak plasma concentration): 77.8 µM
- peptide remaining intact in plasma [4]: > 70%
- remaining at 8 h ([4]; read-out: peptide remaining intact in plasma): 78.2%
- Initial Body weight ([2]; OG-5 50 mg/kg bw oral every other day, stages I and II (24 weeks), mean ± standard): 24.5 ± 1.0 g
- Final Body weight ([2]; OG-5 50 mg/kg bw oral every other day, stages I and II (24 weeks)): 27.7 ± 2.2 g
- Spleen index [2, 10]: 4.16 ± 0.99 mg/g bw
- Thymus index [2, 10]: 0.69 ± 0.15 mg/g bw
- Initial Body weight ([2]; OG-5 150 mg/kg bw oral every other day at stage II (weeks 17-24)): 27.8 ± 2.5 g
- Final Body weight [2, 11]: 28.9 ± 2.0 g
- Spleen index [2, 11]: 4.80 ± 2.13 mg/g bw
- Thymus index [2, 11]: 0.79 ± 0.13 mg/g bw
- bleeding risk compared to aspirin [5, 12]: lower bleeding risk
- bleeding risk compared with M model [5, 12]: a little bleeding risk
- bleeding risk ([5]; low-dose sustainable intervention 50 mg/kg bw from stage I): without bleeding risks
- Papp [6]: 18 ×10⁻⁶ cm/s
- Transport percentage ([6]; spread printed ± 0.57): 14.40%

Compound: PGEOG
- half-life in plasma [7]: 4.3 h

Compound: RVPSL [literature antihypertensive peptide, ovotransferrin 328–332, compared for Caco-2 Papp]
- Papp [8]: 7 ×10⁻⁶ cm/s

Compound: TNGIIR
- Papp [8]: 4.9 ×10⁻⁶ cm/s

Source: paper PMC11547735, “Effect of Oral Administration of Collagen Peptide OG-5 on Advanced Atherosclerosis Development in ApoE^−/− Mice” (Nutrients, 2024)
